Experimental data: US11066357B2, “Benzoannulene derivatives as antiviral agents” (Southern Research Institute, priority 2017, dated 2021)

What was measured:
[1] = cytotoxicity (CC50), Table 1
CHIKV = experiment: antiviral activity (EC50), Table 1; type: cell-based; conditions: Chikungunya virus

SMILES	CC50 [1] [µM]	EC50 (CHIKV) [µM]
CC(C)(C)c1ccc(NC(=O)c2cc3c(cc2OC(F)F)CCCCC3)cc1 [Compound 17, N-(4-(tert.-butyl)phenyl)-3-(difluoromethoxy)-6,7,8,9-tetrahydro-5H-benzo[7]annulene-2-carboxamide]	> 40	> 40
COc1cc2c(cc1C(=O)Nc1cccnc1SC)CCCCC2 [Compound 34, 3-methoxy-N-(2-(methylthio)pyridin-3-yl)-6,7,8,9-tetrahydro-5H-benzo[7]annulene-2-carboxamide]	> 40	> 40
CC(C)(C)c1ccc(NC(=O)c2cc3c(cc2O)CCCCC3)nc1 [Compound 23, N-(5-(tert.-butyl)pyridin-2-yl)-3-hydroxy-6,7,8,9-tetrahydro-5H-benzo[7]annulene-2-carboxamide]	> 40	3.8
CC(C)(C)c1ccc(NC(=O)c2cc3c(cc2O)CCCCC3)cc1 [Compound 2, N-(4-(tert.-butyl)phenyl)-3-hydroxy-6,7,8,9-tetrahydro-5H-benzo[7]annulene-2-carboxamide]	9.8	1.1
COc1cc2c(cc1C(=O)Nc1ccc(C(C)(C)C#N)cc1)CCCCC2 [Compound 24, N-(4-(2-cyanopropan-2-yl)phenyl)-3-methoxy-6,7,8,9-tetrahydro-5H-benzo[7]annulene-2-carboxamide]	> 40	0.2
COc1nc2c(cc1C(=O)Nc1ccc(C(C)(C)C)cn1)CCCCC2 [Compound 37, N-(5-(tert.-butyl)pyridin-2-yl)-2-methoxy-6,7,8,9-tetrahydro-5H-cyclohepta[b]pyridine-3-carboxamide]	> 40	13.6
CCn1ccc(NC(=O)c2cc3c(cc2OC)CCCCC3)n1 [Compound 35, N-(1-ethyl-1H-pyrazol-3-yl)-3-methoxy-6,7,8,9-tetrahydro-5H-benzo[7]annulene-2-carboxamide]	> 40	17.4
COc1cc2c(cc1C(=O)Nc1ncc(C(C)(C)C)s1)CCCCC2 [Compound 8, N-(5-(tert.-butyl)thiazol-2-yl)-3-methoxy-6,7,8,9-tetrahydro-5H-benzo[7]annulene-2-carboxamide]	> 40	9.63
CCn1nc(NC(=O)c2cc3c(cc2OC)CCCCC3)cc1C [Compound 5, N-(1-ethyl-5-methyl-1H-pyrazol-3-yl)-3-methoxy-6,7,8,9-tetrahydro-5H-benzo[7]annulene-2-carboxamide]	> 40	9.9
COc1cc2c(cc1C(=O)Nc1ccc(OC(F)(F)F)cc1)CCCCC2 [Compound 14, 3-methoxy-N-(4-(trifluoromethoxy)phenyl)-6,7,8,9-tetrahydro-5H-benzo[7]annulene-2-carboxamide]	> 40	> 40
COc1nc2c(cc1C(=O)Nc1ccc(C(C)(C)C)cc1)CCCCC2 [Compound 36, N-(4-(tert.-butyl)phenyl)-2-methoxy-6,7,8,9-tetrahydro-5H-cyclohepta[b]pyridine-3-carboxamide]	> 40	1.71
COc1cc2c(cc1C(=O)Nc1sc(C(C)(C)C)cc1C#N)CCCCC2 [Compound 13, N-(5-(tert.-butyl)-3-cyanothiophen-2-yl)-3-methoxy-6,7,8,9-tetrahydro-5H-benzo[7]annulene-2-carboxamide]	> 40	> 40
CC(C)(C)c1ccc(NC(=O)c2cc3c(cc2O)NCCCC3)cc1 [Compound 28, N-(4-(tert.-butyl)phenyl)-8-hydroxy-2,3,4,5-tetrahydro-1H-benzo[b]azepine-7-carboxamide]	> 40	1.47
COc1cc2c(cc1C(=O)NCc1ccc(C(C)(C)C)cc1)CCCCC2 [Compound 18, N-(4-(tert.-butyl)benzyl)-3-methoxy-6,7,8,9-tetrahydro-5H-benzo[7]annulene-2-carboxamide]	> 40	3.5
COc1nc2c(cc1C(=O)Nc1ncc(C(C)(C)C)cn1)CCCCC2 [Compound 38, N-(5-(tert.-butyl)pyrimidin-2-yl)-2-methoxy-6,7,8,9-tetrahydro-5H-cyclohepta[b]pyridine-3-carboxamide]	> 40	19.4
CCn1nc(NC(=O)c2cc3c(nc2OC)CCCCC3)cc1C [Compound 39, N-(1-ethyl-5-methyl-1H-pyrazol-3-yl)-2-methoxy-6,7,8,9-tetrahydro-5H-cyclohepta[b]pyridine-3-carboxamide]	> 40	30.7
COc1cc2c(cc1C(=O)Nc1cc(-c3ccccc3)[nH]n1)CCCCC2 [Compound 25, 3-methoxy-N-(5-phenyl-1H-pyrazol-3-yl)-6,7,8,9-tetrahydro-5H-benzo[7]annulene-2-carboxamide]	> 40	> 40
COc1cc2c(cc1C(=O)Nc1ccc(-c3ccccc3)cc1)CCCCC2 [Compound 15, N-([1,1′-biphenyl]-4-yl)-3-methoxy-6,7,8,9-tetrahydro-5H-benzo[7]annulene-2-carboxamide]	> 40	> 40
COc1cc2c(cc1C(=O)Nc1ccc(C(C)(C)O)cc1)CCCCC2 [Compound 10, N-(4-(2-hydroxypropan-2-yl)phenyl)-3-methoxy-6,7,8,9-tetrahydro-5H-benzo[7]annulene-2-carboxamide]	24.9	1.8

SMILES	CC50 [1] [µM]	EC50 (CHIKV) [µM]
COc1cc2c(cc1CC(=O)N1CCC(F)(F)CC1)CCCCC2 [Compound 33, 1-(4,4-difluoropiperidin-1-yl)-2-(3-methoxy-6,7,8,9-tetrahydro-5H-benzo[7]annulen-2-yl)ethan-1-one]	> 40	> 40
COc1cc2c(cc1C(=O)Nc1ccc(N3CCCS3(=O)=O)cc1)CCCCC2 [Compound 20, N-(4-(1,1-dioxidoisothiazolidin-2-yl)phenyl)-3-methoxy-6,7,8,9-tetrahydro-5H-benzo[7]annulene-2-carboxamide]	> 40	> 5
COc1cc2c(cc1C(=O)Nc1ccc(C(C)(C)C)cn1)CCCCC2 [Compound 11, N-(5-(tert.-butyl)pyridin-2-yl)-3-methoxy-6,7,8,9-tetrahydro-5H-benzo[7]annulene-2-carboxamide]	> 40	1.14
COc1cc2c(cc1C(=O)Nc1ccc(C(C)(C)C)cc1)CCCCC2 [Compound 1, N-(4-(tert.-butyl)phenyl)-3-methoxy-6,7,8,9-tetrahydro-5H-benzo[7]annulene-2-carboxamide]	> 40	0.32
COc1cc2c(cc1CC(=O)Nc1ccc(C(C)(C)C)cc1)CCCCC2 [Compound 31, N-(4-(tert.-butyl)phenyl)-2-(3-methoxy-6,7,8,9-tetrahydro-5H-benzo[7]annulen-2-yl)acetamide]	> 40	30.4
COc1cc2c(cc1C(=O)Nc1ccc(-c3ccccc3)cn1)CCCCC2 [Compound 16, 3-methoxy-N-(5-phenylpyridin-2-yl)-6,7,8,9-tetrahydro-5H-benzo[7]annulene-2-carboxamide]	> 40	> 40
COc1cc2c(cc1C(=O)Nc1cc(C(C)(C)C)[nH]n1)CCCCC2 [Compound 26, N-(5-(tert.-butyl)-1H-pyrazol-3-yl)-3-methoxy-6,7,8,9-tetrahydro-5H-benzo[7]annulene-2-carboxamide]	15.5	7.03
CCn1nc(NC(=O)c2cc3c(cc2O)CCCCC3)cc1C [Compound 27, N-(1-ethyl-5-methyl-1H-pyrazol-3-yl)-3-hydroxy-6,7,8,9-tetrahydro-5H-benzo[7]annulene-2-carboxamide]	> 40	> 40
COc1cc2c(cc1C(=O)Nc1cnc(C(C)(C)C)s1)CCCCC2 [Compound 9, N-(2-(tert.-butyl)thiazol-5-yl)-3-methoxy-6,7,8,9-tetrahydro-5H-benzo[7]annulene-2-carboxamide]	> 40	> 40
CCc1cc2c(cc1C(=O)Nc1ccc(C(C)(C)C)cc1)CCCCC2 [Compound 22, N-(4-(tert.-butyl)phenyl)-3-ethyl-6,7,8,9-tetrahydro-5H-benzo[7]annulene-2-carboxamide]	> 40	> 40
COc1cc2c(cc1C(=O)Nc1cc(C)n(C(C)(C)C)n1)CCCCC2 [Compound 4, N-(1-(tert.-butyl)-5-methyl-1H-pyrazol-3-yl)-3-methoxy-6,7,8,9-tetrahydro-5H-benzo[7]annulene-2-carboxamide]	22.3	3.9
COc1cc2c(cc1C(=O)Nc1ccc(C(C)(C)C)s1)CCCCC2 [Compound 7, N-(5-(tert.-butyl)thiophen-2-yl)-3-methoxy-6,7,8,9-tetrahydro-5H-benzo[7]annulene-2-carboxamide]	> 40	> 40
COc1cc2c(cc1C(=O)NNc1ccc(C(C)(C)C)cc1)CCCCC2 [Compound 30]	> 40	> 40
CCn1nc(C(F)(F)F)c(NC(=O)c2cc3c(cc2OC)CCCCC3)c1C [Compound 6, N-(1-ethyl-5-methyl-3-(trifluoromethyl)-1H-pyrazol-4-yl)-3-methoxy-6,7,8,9-tetrahydro-5H-benzo[7]annulene-2-carboxamide]	> 40	35.2
COc1nc2c(cc1C(=O)Nc1ccc(C(C)(C)C(=O)O)cc1)CCCCC2 [Compound 40, 2-(4-(2-methoxy-6,7,8,9-tetrahydro-5H-cyclohepta[b]pyridine-3-carboxamido)phenyl)-2-methylpropanoic acid]	> 40	> 40
COc1cc2c(cc1C(=O)Nc1ccc(-c3cc[nH]n3)cc1)CCCCC2 [Compound 19, N-(4-(1H-pyrazol-3-yl)phenyl)-3-methoxy-6,7,8,9-tetrahydro-5H-benzo[7]annulene-2-carboxamide]	23.2	3.65
COc1cc2c(cc1C(=O)Nc1ccc(C(C)(C)C)cc1)CCCCN2 [Compound 29, N-(4-(tert.-butyl)phenyl)-8-methoxy-2,3,4,5-tetrahydro-1H-benzo[b]azepine-7-carboxamide]	> 40	24.4
COc1cc2c(cc1CC(=O)N1CCC(C(C)(C)C)CC1)CCCCC2 [Compound 32, 1-(4-(tert.-butyl)piperidin-1-yl)-2-(3-methoxy-6,7,8,9-tetrahydro-5H-benzo[7]annulen-2-yl)ethan-1-one]	17.3	12.6
